{"source": "patent US12729377B2", "about": "“RNAi agents and compositions for inhibiting expression of angiopoietin-like 3 (ANGPTL3), and methods of use” (Arrowhead Pharmaceuticals, Inc., priority 2017, dated 2026)", "type_in_all_cases": "in vivo, LDLR KO mice", "key": {"ANGPTL3 gene [1]": {"system": "ANGPTL3 gene", "assay": "Example 14: RNAi agent and statin, serum total cholesterol in LDLR knockout mice", "conditions": "for Avg Total Chol normalized to pre-treatment: no injection", "excerpt": "(§1) To evaluate the effect of co-administration of RNAi agents and statins in a disease model, LDLR KO mice were commercially obtained (The Jackson Laboratory). For three weeks prior to the onset of the study, forty-one (41) male 7 to 8 week old LDLR KO mice were placed on a high fat (“western”) diet (Teklad Custom Diets TD.88137), and remained on that diet throughout the duration of the study. Pre-dose serum samples were taken on study Day 1 after a four hour fast. The dosing regimen for the study is recited in the following Table 72:\n(§2) • Mice were treated at 40 mg/kg for the first 11 days, then switched to 20 mg/kg thereafter.\n(§3) The vehicle used for the oral gavage in the study was a 1:1 mixture of Ora-Plus®: Ora-Sweet® solution, which were acquired commercially. For the preparation of the atorvastatin oral gavage administrations, the respective desired dose of atorvastatin was first dissolved in sterile water (0.3 mL water per 1 mL of desired formulation) and vortexed until smooth, followed by the addition of a mixture of 1:1 Ora-Plus®: Ora-Sweet® solution (0.7 mL vehicle per 1 mL of desired formulation) and vortexed. On day 1 and for each day thereafter an oral gavage dose was administered for each of the Groups except for Group 2. On Day 23, Groups 1, 2, 3, and 4 received a single subcutaneous administration of 2.5 mg/kg dose ([…] solution) of an ANGPTL3 RNAi agent in D5W (dextrose in 5% water), or vehicle control (D5W) with no RNAi agent.\n(§4) The RNAi agent tested (AD05488) included a modified sequence and an N-acetyl-galactosamine-containing targeting ligand conjugated to the 5′ terminal end of the sense strand. (See Tables 3, 4, and 5 for modified sequences and targeting ligand structures). The injections were performed between the skin and muscle (i.e. subcutaneous injections) into the loose skin over the neck and shoulder area. Serum was collected on days 8, 15, 22 (pre-RNAi agent injection), 29, 36, 43, and 50. LDLR KO mice were fasted for four hours prior to each collection.\n(§5) ANGPTL3 protein levels in serum were measured by ELISA assay (R&D Systems), according to the manufacturer's recommendations. Among other biomarkers, triglycerides, total cholesterol, and low-density lipoprotein (LDL) in serum were measured on a Cobas® Integra 400 (Roche Diagnostics), according to the manufacturer's recommendations.\n(§6) The ANGPTL3 protein levels, triglyceride levels, total cholesterol levels, HDL levels, and LDL levels for each animal were normalized. For normalization, respective levels of ANGPTL3 protein, TG, total cholesterol, or LDL for each animal at a time point was divided by the pre-treatment level of expression in that animal (in this case pre-dose levels on Day 1) to determine the ratio of expression “normalized to pre-treatment.” Data from the study set forth in this Example are shown in the following Tables 73-76: […]"}, "ANGPTL3 protein": {"system": "ANGPTL3 protein", "assay": "Example 14: RNAi agent and statin, serum ANGPTL3 protein by ELISA in LDLR knockout mice", "conditions": "no injection", "excerpt": "as §1, §2, §3, §4, §5, §6"}, "ANGPTL3 gene [2]": {"system": "ANGPTL3 gene", "assay": "Example 14: RNAi agent and statin, serum LDL in LDLR knockout mice", "conditions": "for Avg LDL normalized to pre-treatment: no injection", "excerpt": "as §1, §2, §3, §4, §5, §6"}, "ANGPTL3 gene [3]": {"system": "ANGPTL3 gene", "assay": "Example 14: RNAi agent and statin, serum triglycerides in LDLR knockout mice", "conditions": "for Avg TG normalized to pre-treatment: no injection", "excerpt": "as §1, §2, §3, §4, §5, §6"}, "[4]": {"conditions": "Group 5: 10 mg/kg daily oral gavage atorvastatin, Day 8"}, "[5]": {"conditions": "Group 5: 10 mg/kg daily oral gavage atorvastatin, Day 15"}, "[6]": {"conditions": "Group 5: 10 mg/kg daily oral gavage atorvastatin, Day 22"}, "[7]": {"conditions": "Group 5: 10 mg/kg daily oral gavage atorvastatin, Day 29"}, "[8]": {"conditions": "Group 5: 10 mg/kg daily oral gavage atorvastatin, Day 36"}, "[9]": {"conditions": "Group 5: 10 mg/kg daily oral gavage atorvastatin, Day 43"}, "[10]": {"conditions": "Group 5: 10 mg/kg daily oral gavage atorvastatin, Day 50"}, "[11]": {"conditions": "Group 6: 20 mg/kg* daily oral gavage atorvastatin (40 mg/kg first 11 days), Day 8"}, "[12]": {"conditions": "Group 6: 20 mg/kg* daily oral gavage atorvastatin (40 mg/kg first 11 days), Day 15"}, "[13]": {"conditions": "Group 6: 20 mg/kg* daily oral gavage atorvastatin (40 mg/kg first 11 days), Day 22"}, "[14]": {"conditions": "Group 6: 20 mg/kg* daily oral gavage atorvastatin (40 mg/kg first 11 days), Day 29"}, "[15]": {"conditions": "Group 6: 20 mg/kg* daily oral gavage atorvastatin (40 mg/kg first 11 days), Day 36"}, "[16]": {"conditions": "Group 6: 20 mg/kg* daily oral gavage atorvastatin (40 mg/kg first 11 days), Day 43"}, "[17]": {"conditions": "Group 6: 20 mg/kg* daily oral gavage atorvastatin (40 mg/kg first 11 days), Day 50"}, "[18]": {"conditions": "daily atorvastatin by oral gavage, LDLR KO mice on high fat diet"}}}
{"compound": "CC(C)c1c(C(=O)Nc2ccccc2)c(-c2ccccc2)c(-c2ccc(F)cc2)n1CC[C@@H](O)C[C@@H](O)CC(=O)O", "note": "[atorvastatin, reference compound]", "values": [{"measurement": "Avg Total Chol normalized to pre-treatment", "setting": "ANGPTL3 gene [1]; [4]", "value": 0.821}, {"measurement": "Avg Total Chol normalized to pre-treatment", "setting": "ANGPTL3 gene [1]; [5]", "value": 0.774}, {"measurement": "Avg Total Chol normalized to pre-treatment", "setting": "ANGPTL3 gene [1]; [6]", "value": 0.980}, {"measurement": "Avg Total Chol normalized to pre-treatment", "setting": "ANGPTL3 gene [1]; [7]", "value": 0.943}, {"measurement": "Avg Total Chol normalized to pre-treatment", "setting": "ANGPTL3 gene [1]; [8]", "value": 1.105}, {"measurement": "Avg Total Chol normalized to pre-treatment", "setting": "ANGPTL3 gene [1]; [9]", "value": 0.998}, {"measurement": "Avg Total Chol normalized to pre-treatment", "setting": "ANGPTL3 gene [1]; [10]", "value": 0.987}, {"measurement": "Avg Total Chol normalized to pre-treatment", "setting": "ANGPTL3 gene [1]; [11]", "value": 0.586}, {"measurement": "Avg Total Chol normalized to pre-treatment", "setting": "ANGPTL3 gene [1]; [12]", "value": 0.620}, {"measurement": "Avg Total Chol normalized to pre-treatment", "setting": "ANGPTL3 gene [1]; [13]", "value": 0.767}, {"measurement": "Avg Total Chol normalized to pre-treatment", "setting": "ANGPTL3 gene [1]; [14]", "value": 0.761}, {"measurement": "Avg Total Chol normalized to pre-treatment", "setting": "ANGPTL3 gene [1]; [15]", "value": 0.825}, {"measurement": "Avg Total Chol normalized to pre-treatment", "setting": "ANGPTL3 gene [1]; [16]", "value": 0.767}, {"measurement": "Avg Total Chol normalized to pre-treatment", "setting": "ANGPTL3 gene [1]; [17]", "value": 0.807}, {"measurement": "reduction in total cholesterol", "setting": "ANGPTL3 gene [1]; [18]", "value": "23-40%"}, {"measurement": "Avg ANGPTL3 normalized to pre-treatment", "setting": "ANGPTL3 protein; [4]", "value": 1.577}, {"measurement": "Avg ANGPTL3 normalized to pre-treatment", "setting": "ANGPTL3 protein; [5]", "value": 1.839}, {"measurement": "Avg ANGPTL3 normalized to pre-treatment", "setting": "ANGPTL3 protein; [6]", "value": 1.693}, {"measurement": "Avg ANGPTL3 normalized to pre-treatment", "setting": "ANGPTL3 protein; [7]", "value": 1.764}, {"measurement": "Avg ANGPTL3 normalized to pre-treatment", "setting": "ANGPTL3 protein; [8]", "value": 1.851}, {"measurement": "Avg ANGPTL3 normalized to pre-treatment", "setting": "ANGPTL3 protein; [9]", "value": 1.758}, {"measurement": "Avg ANGPTL3 normalized to pre-treatment", "setting": "ANGPTL3 protein; [10]", "value": 1.878}, {"measurement": "Avg ANGPTL3 normalized to pre-treatment", "setting": "ANGPTL3 protein; [11]", "value": 1.553}, {"measurement": "Avg ANGPTL3 normalized to pre-treatment", "setting": "ANGPTL3 protein; [12]", "value": 1.924}, {"measurement": "Avg ANGPTL3 normalized to pre-treatment", "setting": "ANGPTL3 protein; [13]", "value": 1.871}, {"measurement": "Avg ANGPTL3 normalized to pre-treatment", "setting": "ANGPTL3 protein; [14]", "value": 1.767}, {"measurement": "Avg ANGPTL3 normalized to pre-treatment", "setting": "ANGPTL3 protein; [15]", "value": 1.981}, {"measurement": "Avg ANGPTL3 normalized to pre-treatment", "setting": "ANGPTL3 protein; [16]", "value": 1.935}, {"measurement": "Avg ANGPTL3 normalized to pre-treatment", "setting": "ANGPTL3 protein; [17]", "value": 1.847}, {"measurement": "Avg LDL normalized to pre-treatment", "setting": "ANGPTL3 gene [2]; [4]", "value": 0.778}, {"measurement": "Avg LDL normalized to pre-treatment", "setting": "ANGPTL3 gene [2]; [5]", "value": 0.695}, {"measurement": "Avg LDL normalized to pre-treatment", "setting": "ANGPTL3 gene [2]; [6]", "value": 0.861}, {"measurement": "Avg LDL normalized to pre-treatment", "setting": "ANGPTL3 gene [2]; [7]", "value": 0.881}, {"measurement": "Avg LDL normalized to pre-treatment", "setting": "ANGPTL3 gene [2]; [8]", "value": 0.996}, {"measurement": "Avg LDL normalized to pre-treatment", "setting": "ANGPTL3 gene [2]; [9]", "value": 0.929}, {"measurement": "Avg LDL normalized to pre-treatment", "setting": "ANGPTL3 gene [2]; [10]", "value": 0.872}, {"measurement": "Avg LDL normalized to pre-treatment", "setting": "ANGPTL3 gene [2]; [11]", "value": 0.490}, {"measurement": "Avg LDL normalized to pre-treatment", "setting": "ANGPTL3 gene [2]; [12]", "value": 0.556}, {"measurement": "Avg LDL normalized to pre-treatment", "setting": "ANGPTL3 gene [2]; [13]", "value": 0.687}, {"measurement": "Avg LDL normalized to pre-treatment", "setting": "ANGPTL3 gene [2]; [14]", "value": 0.700}, {"measurement": "Avg LDL normalized to pre-treatment", "setting": "ANGPTL3 gene [2]; [15]", "value": 0.716}, {"measurement": "Avg LDL normalized to pre-treatment", "setting": "ANGPTL3 gene [2]; [16]", "value": 0.689}, {"measurement": "Avg LDL normalized to pre-treatment", "setting": "ANGPTL3 gene [2]; [17]", "value": 0.687}, {"measurement": "reduction in LDL", "setting": "ANGPTL3 gene [2]; [18]", "value": "30-45%"}, {"measurement": "Avg TG normalized to pre-treatment", "setting": "ANGPTL3 gene [3]; [4]", "value": 0.667}, {"measurement": "Avg TG normalized to pre-treatment", "setting": "ANGPTL3 gene [3]; [5]", "value": 0.601}, {"measurement": "Avg TG normalized to pre-treatment", "setting": "ANGPTL3 gene [3]; [6]", "value": 1.086}, {"measurement": "Avg TG normalized to pre-treatment", "setting": "ANGPTL3 gene [3]; [7]", "value": 0.803}, {"measurement": "Avg TG normalized to pre-treatment", "setting": "ANGPTL3 gene [3]; [8]", "value": 0.958}, {"measurement": "Avg TG normalized to pre-treatment", "setting": "ANGPTL3 gene [3]; [9]", "value": 0.862}, {"measurement": "Avg TG normalized to pre-treatment", "setting": "ANGPTL3 gene [3]; [10]", "value": 0.977}, {"measurement": "Avg TG normalized to pre-treatment", "setting": "ANGPTL3 gene [3]; [11]", "value": 0.477}, {"measurement": "Avg TG normalized to pre-treatment", "setting": "ANGPTL3 gene [3]; [12]", "value": 0.362}, {"measurement": "Avg TG normalized to pre-treatment", "setting": "ANGPTL3 gene [3]; [13]", "value": 0.505}, {"measurement": "Avg TG normalized to pre-treatment", "setting": "ANGPTL3 gene [3]; [14]", "value": 0.552}, {"measurement": "Avg TG normalized to pre-treatment", "setting": "ANGPTL3 gene [3]; [15]", "value": 0.598}, {"measurement": "Avg TG normalized to pre-treatment", "setting": "ANGPTL3 gene [3]; [16]", "value": 0.603}, {"measurement": "Avg TG normalized to pre-treatment", "setting": "ANGPTL3 gene [3]; [17]", "value": 0.677}, {"measurement": "reduction in triglycerides", "setting": "ANGPTL3 gene [3]; [18]", "value": "40-60%"}]}
